Test results taken from publication PMC7814726, “Phytochemical constituents and biological activities of Salvia macrosiphon Boiss” (BMC Chemistry, 2021).
Read-outs that look alike come from different tables or passages of the source.

Columns and labels:
[1] = tested on: A549 lung cancer cell line; assay: MTT cytotoxicity assay, A549; type: cell-based, human; details: for IC50: Homo sapiens; for selectivity index A549: IC50 HDF / IC50 A549
Protocol: (§1) Two different human breast cancer cell lines (MCF-7 and MDA-MB-231), lung cancer cell line (A-549) and normal cell (Human Dermal Fibroblast) were purchased from Pasture Institute of Iran, Tehran, Iran. The medium of RPMI 1640 (PAA, Germany) including sodium bicarbonate and N-hydroxyethylpiperazone-n-2-ethanesulfonic Acid (HEPES, Biosera, England) was used to maintain the cell lines. The medium was enriched with fetal bovine serum (FBS; Gibco, USA) and antibiotics. Then, incubated in air atmosphere enriched 5% CO2 at 37 °C. The cytotoxic activity of all fractions and compounds were examined by the MTT (3-[4,5-dimethylthiazole-2-yl]-2,5-diphenyltetrazolium bromide) (Sigma-Aldrich, USA) assay.
(§2) Cancer is the second leading cause of death and responsible for approximately 13% of mortality in the world. […] One of the efficient approaches to new drugs is screening herbal extracts. In the present study, S. macrosiphon was selected for the possible cytotoxic activity. For this purpose, different fractions of aerial parts of the plants including n-hexane, chloroform, ethyl acetate, and water-soluble fractions were screened towards lung cancer cell line (A549) and breast cancer cell lines (MCF-7 and MDA-MB-231) as well as normal cell, human dermal fibroblasts (HDF), using MTT assay comparing with etoposide as a standard drug (Table 2). The inhibitory concentration, 50% (IC50) values (µg /mL) were calculated by linear regression analysis, expressed in mean ± SD.

[2] = tested on: MCF-7 human breast cancer cell line; assay: MTT cytotoxicity assay, MCF-7; type: cell-based; details: for IC50: Homo sapiens; for selectivity index MCF-7: IC50 HDF / IC50 MCF-7
Protocol: as §1, §2

[3] = tested on: MDA-MB-231 human breast cancer cell line; assay: MTT cytotoxicity assay, MDA-MB-231; type: cell-based; details: for IC50: Homo sapiens; for selectivity index MDA-MB-231: IC50 HDF / IC50 MDA-MB-231
Protocol: as §1, §2

[4] = tested on: Human Dermal Fibroblast (HDF); assay: MTT cytotoxicity assay, normal cells; type: cell-based; details: read-out: IC50 HDF
Protocol: as §1, §2

[5] = parameters: method as in earlier work; details: earlier report; cited from earlier work
[6] = A549, MTT assay, isolated compounds, read-out: IC50 A549
[7] = MCF7, MTT assay, isolated compounds, read-out: IC50 MCF-7
[8] = MDA-MB-231, MTT assay, isolated compounds, read-out: IC50 MDA-MB-231
[9] = MTT assay, normal cells, isolated compounds
[10] = MDA-MB-231, read-out: IC50 MDA-MB-231

Q: With COc1cc([C@@H]2c3cc4c(cc3[C@@H](O[C@@H]3O[C@@H]5CO[C@@H](C)O[C@H]5[C@H](O)[C@H]3O)[C@H]3COC(=O)[C@H]23)OCO4)cc(OC)c1O [Etoposide, reference compound] as the compound, how does the IC50 [1, 6] read?
A: The IC50 was 28.2 ± 1.32 µM.

Q: And the IC50 ([1]; A549, MTT assay, mean ± SD, fractions of S. macrosiphon, read-out: IC50 A549)?
A: The IC50 was 16.6 ± 0.78 µg/mL.

Q: What about the “selectivity index A549” value [1] of the same compound?
A: Its value is 5.6.

Q: And the IC50 [2, 7]?
A: The IC50 was 37.5 ± 0.66 µM.

Q: What about the IC50 ([2]; MCF7, MTT assay, mean ± SD, fractions of S. macrosiphon, read-out: IC50 MCF-7) of the same compound?
A: The IC50 was 22.1 ± 0.39 µg/mL.

Q: What about the “selectivity index MCF-7” value [2] of the same compound?
A: The value was 4.2.

Q: What about the IC50 [3, 8] of the same compound?
A: Its IC50 is 34.5 ± 0.36 µM.

Q: What about the IC50 ([3]; MDA-MB-231, MTT assay, mean ± SD, fractions of S. macrosiphon, read-out: IC50 MDA-MB-231) of the same compound?
A: The IC50 was 20.3 ± 0.21 µg/mL.

Q: What about the “selectivity index MDA-MB-231” value [3] of the same compound?
A: The value was 4.6.

Q: And the IC50 [4, 9]?
A: Its IC50 is 158 ± 2.04 µM.

Q: And the IC50 ([4]; MTT assay, normal cells, mean ± SD, fractions of S. macrosiphon)?
A: Its IC50 is 92.7 ± 1.2 µg/mL.

Q: With CC[C@H](CC[C@@H](C)[C@H]1CC[C@H]2[C@@H]3CC=C4C[C@@H](O)CC[C@]4(C)[C@H]3CC[C@]12C)C(C)C [Compound 4, β-sitosterol] as the compound, how does the IC50 ([1]; A549, read-out: IC50 A549) read?
A: The IC50 was > 100 µM.

Q: What about the IC50 ([2]; MCF7, read-out: IC50 MCF-7) of the same compound?
A: The IC50 was > 100 µM.

Q: And the IC50 [3, 10]?
A: The IC50 was > 100 µM.

Q: And the cytotoxicity [5]?
A: Its cytotoxicity is “no activity”.

Q: For C=C[C@]1(C)CCC2[C@@]3(C)CCCC(C)(C)C3CC[C@@]2(C)O1 (stereo partly drawn) [Compound 1, 13-epi manoyl oxide], which IC50 ([1]; A549, read-out: IC50 A549) is on record?
A: Its IC50 is 19.4 ± 1.96 µM.

Q: What about the “selectivity index A549” value [1] of the same compound?
A: Its value is 17.4.

Q: What about the IC50 ([2]; MCF7, read-out: IC50 MCF-7) of the same compound?
A: The IC50 was 15.8 ± 0.35 µM.

Q: And the “selectivity index MCF-7” value [2]?
A: The value was 21.4.

Q: And the IC50 [3, 10]?
A: Its IC50 is 22.2 ± 1.72 µM.

Q: What about the “selectivity index MDA-MB-231” value [3] of the same compound?
A: The value was 15.2.

Q: And the IC50 [4]?
A: The IC50 was 338 ± 9.2 µM.

Q: With C=C[C@]1(C)CCC2[C@@]3(C)CCCC(C)(C)C3[C@@H](O)C[C@@]2(C)O1 (stereo partly drawn) [Compound 2, 6α-hydroxy-13-epimanoyl oxide] as the compound, how does the IC50 [1, 6] read?
A: Its IC50 is 170 ± 11.6 µM.

Q: And the IC50 [2, 7]?
A: Its IC50 is 98 ± 11.3 µM.

Q: What about the IC50 [3, 8] of the same compound?
A: The IC50 was 120 ± 5.09 µM.

Q: And the IC50 [4, 9]?
A: The IC50 was > 653 µM.

Q: What about the melting point of the same compound?
A: Its melting point is 95 to 98 °C.

Q: Which IC50 [1, 6] does the source give for COc1ccc(-c2cc(=O)c3c(O)cc(OC)cc3o2)cc1 [Compound 3, 5-hydroxy-7,4'-dimethoxyflavone] here?
A: Its IC50 is 469 ± 22.8 µM.

Q: What about the IC50 [2, 7] of the same compound?
A: The IC50 was 428 ± 23.1 µM.

Q: And the IC50 [3, 8]?
A: Its IC50 is 470 ± 23.1 µM.

Q: What about the IC50 [4, 9] of the same compound?
A: Its IC50 is > 971 µM.
